From patent US20180172669A1, “SCREENING AND USE OF PIPERIDINO PYRAZOLOPYRIMIDINE COMPOUND” (Institute of Basic Medical Sciences, Chinese Academy of …, priority 2015, published 2018)

Columns and labels:
[1] = test system: Id1 promoter driven Venus-Luci dual reporter gene in ID1-V-LUC hES; assay: ID1-V-LUC hES luciferase assay with compound (Example 4); format: cell-based, human; conditions: 18-24 h
Protocol: ID1-V-LUC hES were seeded in a 96-well plate and were grown to 80% confluency. The old medium was removed and the cells were washed with PBS, then mTeSR medium of human embryonic stem cell (Biowish.Co.,Ltd.) was added. The cells were starved for 6 hours prior to incubating with the compound: 1H-Pyrazolo[3,4-d]pyrimidine, 1-phenyl-4-(1-piperidinyl)- (Cas No :23000-46-6). The compound was serially diluted to 5, 2.5, 1.25, 0.625, 0.3 μg/mL in above-mentioned medium, and sequentially added in the 96-well plate in which the stem cells of the model were seeded. Triplicate replicates were used for each concentration. At the same time, the well in which the medium containing 0.1% DMSO was added as blank control. After the incubation of 18-24 h at 37° C. (5% CO2), the cells were lysed with cell lysis buffer CCLR (Promega), and the luciferase activity were detected using the method according to the instruction of the detection system of reporter gene, Luciferase Assay System (Promega).
The activity of luciferase resulting from the stimulation of the compounds at different concentrations was calculated using the following formula:
Regulation rate=Luciferase activity of compound-treated cells/Luciferase activity of DMSO-treated cells×100%

[2] = test system: endothelial cells; assay: Angiogenesis of endothelial cells on Matrigel; format: cell-based; conditions: 2-8 hours; for ability of angiogenesis compared with control: ECs on Matrigel
Protocol: The endothelial cells were grown in complete culture medium (1% FBS in SFM) to confluency. One day before the experiment of angiogenesis, the medium was replaced by 0.2% FBS SFM to starve the cells for 16 hours. One the day before the experiment, Matrigel (Corning, 10 mg/ml) was put on ice overnight for thawing, and on the day of experiment, Matrigel was added in the wells of the pre-chilled 96-well plate (50 μl per well) and was distributed evenly in the wells. Then the plate was put in the incubator and incubated at 37 □ for 30 mins. Afterwards, the medium for starvation was removed and the cells were washed twice with DPBS, then Accutase enzyme was added to digest the cells for 1 minute. Later on, the SFM medium for starvation was added to resuspend the cells, and the cells were gently pipetted to form single cell suspension and centrifuged in room temperature at 1000 rpm for 4 mins. The cells were resuspended in SFM medium for starvation and counted. Then, the cells were seeded in 1×10^4 cells per well, and were gently shook to distributed evenly before putting in the incubator at 37 □. The angiogenesis was observed within 2-8 hours.

[3] = test system: MCT-PAH rats; assay: Monocrotaline induced PAH rat model (MCT-PAH); format: in vivo, Sprague-Dawley rats; conditions: 4.5 mg/kg intragastric gavage, three weeks after MCT
Protocol: In vivo experiments with MCT-PAH rats: Monocrotaline (MCT, 55 mg/kg) or saline were administrated subcutaneously in single dose to male Sprague-Dawley rats (supplied by Nation Institutes for Food and Medicament Control). Three weeks after the injection of MCT, 4.5 mg/kg of piperidino pyrazolopyrimidine compound (A), saline or positive control (Sildenafil) were administrated respectively to the rats by intragastric gavage. Two weeks after the administration, the right ventricular systolic pressure (RVSP) was measured and the survival rate was calculated with the data of RVSP recorded in BL-420E system (FIG. 13).

[4] = test system: phosphodiesterase; assay: Inhibitory effect on phosphodiesterase; format: biochemical
[5] = test system: Id1 promoter driven Venus-Luci dual reporter gene in ID1-V-LUC hES; assay: ID1-V-LUC hES differentiated cells stimulated with BMP4, luciferase activity; format: cell-based, human; conditions: after 4 hours of stimulation with 6.25 ng/mL of BMP4, differentiated cells
Protocol: Id1-Venus-Luc-MC1-DTA plasmid was linearized with AsiSI, and then the resulting plasmid was electroporated into human embryonic stem cells (H9) of P57 (a commercially available human embryonic stem cells which could be passage to expand). At 37° C., CO2 5%, the cells were cultured on the DR4 MEF-feeder-cells (APPLIEDSTEMCELL, Inc., U.S.) with the medium containing serum replacement, and the medium was replaced by fresh medium daily. BioRad electroporation machine (ZAP: 250 V, uF 500, TC 8.6) was used for electroporation, then 19 clones were screened out using puromycin, and the clones with green fluorescence were picked out (the cells containing MC1-DTA plasmid cannot survive). The consistency between fluorescent activity and expression of endogenous Id gene was measured (FIG. 8).
The luciferase activity increased over time (0, 1, 2 and 5 hours) after the stimulation with of BMP4. The effect of external stimulus on the expression of Id gene can be reflected maximally by expression level of luciferase. Therefore, clone 2 (named as ID1-V-LUC hES) was selected and was used to carry out the secondary screening for the compounds (FIG. 9). ID1-V-LUC hES was differentiated toward early mesoderm, also the vascular cell with smooth muscle cell markers (α SMA, Calponin) were obtained. […]

Molecule	expression level of luciferase of the stem cells of the model ([1]; 5, 2.5, 1.25, 0.625, 0.3 μg/mL)	peak expression level of luciferase (regulation rate) ([1]; concentration of the compound 2.5 μg/mL, vs DMSO) [fold]	ability of angiogenesis relative to VEGF treated ECs ([2]; 1 μM)	ability of angiogenesis compared with control ([2]; 1 μM)	ability of angiogenesis relative to VEGF treated ECs ([2]; 5 μM)	ability of angiogenesis compared with control ([2]; 5 μM)	pulmonary arterial pressure (right ventricular systolic pressure, RVSP) of MCT-PAH rats ([3]; measured two weeks after the administration)	survival rate of the rats with MCT-PAH ([3]; two weeks after the administration)	inhibitory effect on phosphodiesterase [4]	regulation rate of ID1-V-LUC [5] [fold]
c1ccc(-n2ncc3c(N4CCCCC4)ncnc32)cc1 [piperidino pyrazolopyrimidine compound, 1H-Pyrazolo[3,4-d]pyrimidine,1-phenyl-4-(1-piperidinyl)-]	up-regulated	3.31	comparable	significantly increased	comparable	significantly increased	decreased significantly	increased obviously	weak inhibitory effect	
BMP4: BMP ligand (Peprotech) used to stimulate ID1-V-LUC hES cells (protein, UniProt P12644 293-408, looked up) Bone morphogenetic protein 4: SPKHHSQRARKKNKNCRRHSLYVDFSDVGWNDWIVAPPGYQAFYCHGDCPFPLADHLNSTNHAIVQTLVNSVNSSIPKACCVPTELSAISMLYLDEYDKVVLKNYQEMVVEGCGCR										7.5
